Consider 4 compounds from patent US6656952B2, “Cis-substituted fluoromethylpyrrolidine derivative” (Daiichi Pharmaceutical Co., Ltd., priority 1997, dated 2003).

The test system of one data set is X. maltophilia, IID 1275. The experiment in a line: Antibacterial activity (MIC), standard method of the Japan Society of Chemotherapy. Format: cell-based. The conditions noted are these: Stenotrophomonas maltophilia, IID1275, read-out: Antibacterial activity (minimum inhibitory concentration). The procedure: (§1) Examples of the present invention are given below by way of illustration and not by way of limitation. The antibacterial activity of each compound of interest was measured in accordance with the standard method specified by the Japan Society of Chemotherapy, with the results shown in Table 1 as MIC values (μg/ml).

Data set [1] deals with Str. faecalis, ATCC-19433. The description is as above. The class given is cell-based. The conditions noted are these: Enterococcus faecalis, ATCC19433, read-out: Antibacterial activity (minimum inhibitory concentration). The method, then: as §1
In the next data set the test system is Ser. marcescens, 10100. Described as above. The class given is cell-based. The conditions noted are these: Serratia marcescens, read-out: Antibacterial activity (minimum inhibitory concentration). The method, then: as §1
For another data set, the system named is S. aureus, 209P. The description is as above. Format: cell-based. The conditions noted are these: Staphylococcus aureus, read-out: Antibacterial activity (minimum inhibitory concentration). The procedure: as §1
Another data set concerns S. aureus, 870307. The data set is described as above. The conditions noted are these: Staphylococcus aureus, read-out: Antibacterial activity (minimum inhibitory concentration). Format: cell-based. The method, then: as §1
The test system of a further data set is Str. pyogenes, G-36. Described as above. Format: cell-based. The conditions noted are these: Streptococcus pyogenes, G36, read-out: Antibacterial activity (minimum inhibitory concentration). The method, then: as §1
In a further data set the test system is E. coli, NIHJ. The description is as above. The class given is cell-based. The conditions noted are these: Escherichia coli, read-out: Antibacterial activity (minimum inhibitory concentration). The method, then: as §1
For the next data set, the system named is S. epidermidis, 56500. Described as above. The class given is cell-based. The conditions noted are these: Staphylococcus epidermidis, read-out: Antibacterial activity (minimum inhibitory concentration). The procedure:
as §1

For a further data set, the system named is Pr. vulgaris, 08601. The data set is described as above. Particulars: Proteus vulgaris, read-out: Antibacterial activity (minimum inhibitory concentration). Format: cell-based. The method, then:
as §1

The next data set deals with Ps. aeruginosa, 32104. The description is as above. The class given is cell-based. The conditions noted are these: Pseudomonas aeruginosa, read-out: Antibacterial activity (minimum inhibitory concentration). The method, then: as §1
The next data set relates to Pr. mirabilis, IFO- 3849. The description is as above. The class given is cell-based. Particulars: Proteus mirabilis, IFO3849, read-out: Antibacterial activity (minimum inhibitory concentration). The method, then:
as §1

In a further data set the test system is Ps. aeruginosa, 32121. The data set is described as above. Particulars: Pseudomonas aeruginosa, read-out: Antibacterial activity (minimum inhibitory concentration). The class given is cell-based. The method, then:
as §1

The subject of another data set is S. flexneli, 2A 5503. The description is as above. Particulars: read-out: Antibacterial activity (minimum inhibitory concentration). Format: cell-based. The procedure:
as §1

The next data set concerns mouse peripheral blood. The experiment in a line: Mouse peripheral blood micronucleus test. Format: in vivo.

Converted amounts (≈) assume the structure as drawn. A value given as a limit tells only on which side of the number the result lay.

Regarding `COc1c(N2C[C@H](CF)[C@H](N)C2)c(F)cc2c(=O)c(C(=O)O)cn(C3CC3)c12` [Ex. 2, 7-[3-(S)-Amino-4-(S)-fluoromethyl-1-pyrrolidinyl]-1-cyclopropyl-6-fluoro-1,4-dihydro-8-methoxy-4-oxoquinoline-3-carboxylic acid], the MIC in the data set with X. maltophilia, IID 1275 was determined as 0.1 µg/mL (≈ 0.254 µM); in [1], 0.1 µg/mL (≈ 0.254 µM); in the data set on Ser. marcescens, 10100, 0.05 µg/mL (≈ 0.127 µM); in the data set with S. aureus, 209P, 0.013 µg/mL (≈ 0.033 µM); with S. aureus, 870307, 0.39 µg/mL (≈ 0.991 µM); in the data set on Str. pyogenes, G-36 it was 0.1 µg/mL (≈ 0.254 µM). For the same compound, the MIC in the data set on E. coli, NIHJ is no more than 0.003 µg/mL; with S. epidermidis, 56500 it was 0.05 µg/mL (≈ 0.127 µM); in the data set with Pr. vulgaris, 08601, 0.013 µg/mL (≈ 0.033 µM); in the data set with Ps. aeruginosa, 32104 it was 0.2 µg/mL (≈ 0.508 µM); in the data set with Pr. mirabilis, IFO- 3849, 0.05 µg/mL (≈ 0.127 µM); in the data set with Ps. aeruginosa, 32121, 0.1 µg/mL (≈ 0.254 µM). Also, the MIC in the data set on S. flexneli, 2A 5503 was 0.006 µg/mL (≈ 0.0153 µM).
In the case of `COc1c(N2C[C@@H](CF)[C@@H](N)C2)c(F)cc2c(=O)c(C(=O)O)cn(C3CC3)c12` [Comp. Ex. 1, 7-[3-(R)-Amino-4-(R)-fluoromethyl-1-pyrrolidinyl]-1-cyclopropyl-6-fluoro-1,4-dihydro-8-methoxy-4-oxoquinoline-3-carboxylic acid, reference compound], the MIC was found to be 0.2 µg/mL (≈ 0.508 µM) in the data set with X. maltophilia, IID 1275; 0.2 µg/mL (≈ 0.508 µM) in [1]; 0.1 µg/mL (≈ 0.254 µM) in the data set with Ser. marcescens, 10100; 0.025 µg/mL (≈ 0.0636 µM) in the data set on S. aureus, 209P; 0.78 µg/mL (≈ 1.98 µM) in the data set with S. aureus, 870307; 0.2 µg/mL (≈ 0.508 µM) with Str. pyogenes, G-36. For the same compound, the MIC is no more than 0.003 µg/mL in the data set with E. coli, NIHJ; 0.1 µg/mL (≈ 0.254 µM) in the data set with S. epidermidis, 56500; 0.013 µg/mL (≈ 0.033 µM) in the data set with Pr. vulgaris, 08601; 0.2 µg/mL (≈ 0.508 µM) with Ps. aeruginosa, 32104; 0.1 µg/mL (≈ 0.254 µM) with Pr. mirabilis, IFO- 3849; 0.1 µg/mL (≈ 0.254 µM) in the data set on Ps. aeruginosa, 32121. Also, in the data set on S. flexneli, 2A 5503, the MIC was 0.013 µg/mL (≈ 0.033 µM).
As to `COc1c(N2C[C@@H](N)[C@@H](C)C2)c(F)cc2c(=O)c(C(=O)O)cn(C3CC3)c12` [formula (VI)], in the data set on mouse peripheral blood, the “micronucleus test (micronucleus inducing action)” value is on record as “positive”.
For the compound `COc1c(N2C[C@H](CF)[C@H](N)C2)c(F)cc2c(=O)c(C(=O)O)cn([C@@H]3C[C@@H]3F)c12` [Ex. 1, 7-[3-(S)-Amino-4-(S)-fluoromethyl-1-pyrrolidinyl]-6-fluoro-1-[2-(S)-fluoro-1-(R)-cyclopropyl]-1,4-dihydro-8-methoxy-4-oxoquinoline-3-carboxylic acid], the MIC came to 0.2 µg/mL (≈ 0.486 µM) with X. maltophilia, IID 1275; 0.1 µg/mL (≈ 0.243 µM) in [1]; 0.05 µg/mL (≈ 0.122 µM) with Ser. marcescens, 10100; 0.013 µg/mL (≈ 0.0316 µM) in the data set on S. aureus, 209P; 0.2 µg/mL (≈ 0.486 µM) with S. aureus, 870307; 0.1 µg/mL (≈ 0.243 µM) in the data set with Str. pyogenes, G-36. Besides, the MIC in the data set with E. coli, NIHJ was no more than 0.003 µg/mL; in the data set on S. epidermidis, 56500, 0.05 µg/mL (≈ 0.122 µM); with Pr. vulgaris, 08601 it was 0.013 µg/mL (≈ 0.0316 µM); in the data set with Ps. aeruginosa, 32104, 0.2 µg/mL (≈ 0.486 µM); with Pr. mirabilis, IFO- 3849 it was 0.025 µg/mL (≈ 0.0608 µM); in the data set on Ps. aeruginosa, 32121 it was 0.05 µg/mL (≈ 0.122 µM). In the data set with S. flexneli, 2A 5503, the MIC was determined as 0.006 µg/mL (≈ 0.0146 µM).
